# According to patent US4294833A, “Substituted 4-hydroxy-isophthalic acid picolylamides having a pharmaceutical activity in thromboembolic disorders” (Societa Italo-Britannica, priority 1977, dated 1981):
# What was measured:
# [1] = tested on: CaCl2-induced plasma coagulation; test: Anticoagulant activity on PRP, Hartert's thromboelastograph; format: in vivo, New Zealand rabbits; settings: Oryctolagus cuniculus, ip, percent increase of total time for coagulum formation (r+k) vs before treatment; 25 mg/kg intraperitoneal, rabbits; read-out: anticoagulant activity (AC)
# Method: Determination of the anticoagulant activity
# The anticoagulant activity was also assessed on PRP of animals treated as described in the preceding methods, by using again Hartert's thromboelastograph method.
# The plasma coagulation was induced by adding to 0.25 ml PRP a 1.29% solution of CaCl2.
# The anticoagulant effect was determined as a percent increase of the total time for the coagulum formation (the index r+k can be obtained from the thromboelastograph diagram) in a plasma after treatment, referred to the same index obtained before the treatment (control). Again the dose level was 25 mg/kg for each compound under examination, intraperitoneally.
# (§1) In tables I and II are further indicated for each compound the method of preparation; the melting point PF in °C; the platelet antiaggregant activity (AAP) expressed in terms of DI50 in mg/kg, referred to ADP and thrombin respectively; the antithrombin activity (AT) in %; the anticoagulant activity (AC) in %; the fibrinolytic activity (FL) in %; the acute toxicity (LD50) in mice, intraperitoneally, in mg/kg, as previously defined.
# [2] = tested on: thrombin-induced coagulation of platelet rich plasma; test: Antithrombin activity on PRP, Hartert's thromboelastograph; format: in vivo, New Zealand rabbits; settings: Oryctolagus cuniculus, Platelet, ip, percent decrease of index ma/[r+k] vs before treatment; 20 mg/kg intraperitoneal, rabbits
# Method: Determination of the antithrombin activity
# The antithrombin activity on the PRP (platelet rich plasma) obtained following the above described method was assessed by Hartert's thromboelastograph (Hellige model). The coagulation was induced by adding to 0.25 ml of plasma 0.06 ml of a thrombin solution (Roche Topostasin® per os) at 60 units*, pH 7.4**. The antithrombin activity was assessed in terms of a percent decrease of the index (ma/[r+k]) which was calculated from the thromboelastograph diagram, wherein r is the reaction time, k is the speed of the coagulum formation and ma is the maximum spread of the tong, after an intraperitoneal treatment with a dose of 20 mg/kg of each compound under examination, referred to the same index obtained before the treatment (control).
# as §1
# [3] = tested on: platelet aggregation induced by ADP; test: Platelet aggregation inhibitory activity in vivo (Born aggregometer), ADP-induced; design: species or system New Zealand rabbits; settings: Oryctolagus cuniculus, Platelet, ip, dose for 50% inhibition of ADP-induced aggregation curve; rabbits, intraperitoneal, blood 2, 4 and 6 hours after injection; read-out: platelet antiaggregant activity (AAP), DI50, ADP
# Method: (§2) Determination of the platelet aggregation inhibitory activity in vivo
# (§3) The activity of the above described compounds as platelet antiaggregant was tested in vivo on rabbits, by the Born aggregometer. The inhibition of the aggregation curve induced by ADP and thrombin was assessed with different drug concentrations according to the platelet reactivity. New Zealand rabbits which had been held fasting for 12 hours with water ad libitum, were anaesthetized with Nembutal in a dose of 35 mg/kg intramuscolarly. The blood was withdrawn from the carotidal arthery, before (control) and 2, 4, and 6 hours after the intraperitoneal injection of the compounds under examination (at the dose indicated below). The blood samples were taken up in a 3.8% aqueous solution of sodium citrate in a ratio 10:1 and thereupon centrifuged at 1500 r.p.m. for 10 minutes, for obtaining a PRP (platelet rich plasma). A portion of such a plasma was thereupon centrifuged at 8000 r.p.m. for 10 minutes, for obtaining a PPP (platelet lean plasma) which was used for zeroing the measuring apparatus.
# (§4) From the results of said experiments, there was determined the dose of each product in mg/kg body weight able to induce a 50% inhibition of the aggregation curve (DI50) after treatment, referred to the curve obtained by the same control plasma before treatment.
# as §1
# [4] = tested on: blood coagulum; test: Fibrinolytic activity, Fearnley method (lysis of blood coagulum in toto); format: in vivo; settings: Oryctolagus cuniculus, ip, 0.5 h, percent decrease of coagulum weight after 30 minutes at 37° C.; 25 mg/kg intraperitoneal, rabbits; read-out: fibrinolytic activity (FL)
# Method: Determination of the fibrinolytic activity
# The determination of the fibrinolytic activity was made following the Fearnley method for the lysis of the blood coagulum in toto.
# 0.2 ml of blood were withdrawn from the marginal vein of the ear of rabbits treated in the same way as the previously described tests, before and after an intraperitoneal injection of the compounds under test at a dose level of 25 mg/kg for each compound.
# The blood samples were placed in test tubes containing 1.7 ml of phosphate buffer at pH 7.4 and 0.1 ml of thrombin (Roche Topostasin ® per os) at 50 units NIH/ml, and maintained in an ice bath. The test tubes were maintained at said temperature for 30 minutes and thereupon were transferred to a temperature controlled water bath at 37° C.
# The fibrinolytic activity was determined as a percent decrease of the coagulum weight, measured after incubation for 30 minutes at 37° C.
# as §1
# [5] = tested on: platelet aggregation induced by thrombin; test: Platelet aggregation inhibitory activity in vivo (Born aggregometer), thrombin-induced; design: species or system New Zealand rabbits; settings: Oryctolagus cuniculus, Platelet, ip, dose for 50% inhibition of thrombin-induced aggregation curve; rabbits, intraperitoneal, blood 2, 4 and 6 hours after injection; read-out: platelet antiaggregant activity (AAP), DI50, Thrombin
# Method: as §2, §3, §4, §1
# [6] = Acute toxicity, intraperitoneal; settings: mouse, in vivo, ip, male Swiss mice, intraperitoneal, 7 days observation; preliminary, by graphic interpolation; read-out: acute toxicity (LD50 / DL50)
# Method: The acute toxicity limit was determined intraperitoneally on male Swiss mice, weighing 20±2 g, held fasting for 18 hours with water ad libitum.
# The animals were maintained under observation for 7 days of treatment, by examining the general symptomatology and noting the death sequency. The preliminary DL50 in mg/kg body weight was calculated by graphic interpolation of the results as obtained.
# as §1
SMILES,change in vivo at 25 mg/kg [1] [%],inhibition in vivo at 20 mg/kg [2] [%],ED50 [3] [mg/kg],fibrinolytic activity (percent decrease of coagulum weight) at 25 mg/kg [4] [%],ED50 [5] [mg/kg],LD50 at 168 h [6] [mg/kg]
COc1c(Cl)cc(C(=O)NCc2ccncc2)cc1C(=O)NCc1ccncc1 [Example 66],13.6,25,67.2,20.2,42.5,437
CC(C)CCOc1ccc(C(=O)NCc2cccnc2)cc1C(=O)NCc1cccnc1 [Example 13],24.5,28.5,48.3,21.9,27.1,173
CCCOc1ccc(C(=O)NCc2ccncc2)cc1C(=O)NCc1ccncc1 [Example 59],20.6,39.1,25.2,32.8,18.1,623
COc1cc(C(=O)NCc2cccnc2)cc(C(=O)NCc2cccnc2)c1OCC(C)(C)C [Example 37],14.2,25.5,44.6,21.9,32,378
C=CCCCOc1ccc(C(=O)NCc2cccnc2)cc1C(=O)NCc1cccnc1 [Example 9],14.5,49.9,36.2,40.3,23.2,375
CC(C)=COc1ccc(C(=O)NCc2cccnc2)cc1C(=O)NCc1cccnc1 [Example 55],19.2,32.5,28.2,29.5,20.5,338
CCCN(Cc1cccnc1)C(=O)c1ccc(OC)c(C(=O)N(CCC)Cc2cccnc2)c1 [Example 41],15.8,26.3,65.1,22.3,46.5,620
C=C(C)COc1ccc(C(=O)N(Cc2cccnc2)C(C)C)cc1C(=O)N(Cc1cccnc1)C(C)C [Example 56],18.6,47.3,29.1,38.1,21.4,352
C=CCCCCOc1ccc(C(=O)NCc2cccnc2)cc1C(=O)NCc1cccnc1 [Example 10],12.6,52.6,29.4,43.9,21.1,194
COc1cc(C(=O)NCc2cccnc2)cc(C(=O)NCc2cccnc2)c1OC1CCCC1 [Example 20],12.9,32.6,35.6,27.9,21.4,375
CCN(Cc1cccnc1)C(=O)c1ccc(OC)c(C(=O)N(CC)Cc2cccnc2)c1 [Example 40],13.4,28.9,60.2,20.6,42.3,605
CCCCCOc1c(Cl)cc(C(=O)NCc2cccnc2)cc1C(=O)NCc1cccnc1 [Example 24],16,24.4,41.3,6.4,35.6,371
CCC(C)(C)Oc1c(Cl)cc(C(=O)NCc2cccnc2)cc1C(=O)NCc1cccnc1 [Example 29],20,27.3,44.1,24.1,30.7,206
O=C(NCc1cccnc1)c1cc(Cl)c(O)c(C(=O)NCc2cccnc2)c1 [Example 32],11.8,22.2,50.2,17.3,33.6,425
COc1ccc(C(=O)NCc2ccncc2)cc1C(=O)NCc1ccncc1 [Example 58],18.2,37,28.1,31.7,21.3,704
CC(C)COc1ccc(C(=O)NCc2cccnc2)cc1C(=O)NCc1cccnc1 [Example 15],17.6,25.5,52.6,19.8,33,471
CCOc1ccc(C(=O)N(CCCC(C)C)Cc2cccnc2)cc1C(=O)N(CCCC(C)C)Cc1cccnc1 [Example 46],15.5,32.7,34.3,29.1,24.7,451
